Key:
[1] = Stability in mouse liver homogenate; format: in vitro ADME, CD-1 mouse
Procedure: In this experiment, fresh mouse liver sample was homogenized by adding saline (1 g liver tissue: 5 mL saline) immediately after collection. After centrifuging for 10 minutes at 14000 rpm, the pooled supernatant was used to prepare liver homogenate solutions. […] Then, they were incubated at rt. After incubation time of 0, 15 and 30 minutes, 180 μl aliquots of MeOH was added into 20 μl of homogenate, respectively. All these samples were vortex mixed for 5 minutes at 1500 rpm and centrifuged for 10 minutes at 14000 rpm. The supernatants were transferred into a 96-well plate for LC-MS/MS analysis.
The Chromatographic separation was achieved on a Chromolith Performance RP-18 endcapped (3×100 mm) at room temperature.
Data processing was performed with Agilent MassHunter Workstation Data Acquisition B.04.00 and Agilent MassHunter Workstation Qualitative Analysis B.04.00.

[2] = Incubation with human liver microsomes (metabolite formation); format: in vitro ADME; conditions: 5 μM, 1 mM NADPH, 60 minutes
Procedure: (§1) In this experiment, pooled liver microsomes (20 mg/ml) from human, male Wister rat and male CD-1 mouse were obtained from BD Bioscience (Franklin Lakes, N.J. USA). Incubation reaction mixtures contained a final concentration of 0.1M sodium phosphate buffer (pH 7.4), 0.5 mg/ml microsomal protein, 5 μM of the tested compounds and 1 mM NADPH in a total volume of 400 μl. The incubations were done for 60 minutes and 300 μl of the mixtures was transferred to 150 μl of ice cold methanol to terminate reactions. After vortexes for 3 minutes and centrifuged at 4000 rpm at 4° C. for 10 minutes, the clear supernatant was used directly for analysis. The samples were analyzed by Applied Biosystems API 3200 Q TRAP LC/MS/MS system using electrospray ionization mode.

[3] = Incubation with rat liver microsomes (metabolite formation); format: in vitro ADME, male Wister rat; conditions: 5 μM, 1 mM NADPH, 60 minutes
Procedure: as §1

[4] = Incubation with mouse liver microsomes (metabolite formation); format: in vitro ADME, male CD-1 mouse; conditions: 5 μM, 1 mM NADPH, 60 minutes
Procedure: as §1

HBV = HBV infected transgenic mouse or humanized mouse models; cited from earlier work

COC(=O)C1=C(C)NC(c2ncc(F)cc2F)=N[C@H]1c1ccc(F)cc1Cl [Bay 41-4109]
Percentage to 0 min ([1]; 100 ng/mL, incubation time 0 min): 100% | Percentage to 0 min ([1]; 100 ng/mL, incubation time 15 min, rt): 1.84% | Percentage to 0 min ([1]; 300 ng/mL, incubation time 0 min): 100% | Percentage to 0 min ([1]; 300 ng/mL, incubation time 30 min, rt): 0% | Percentage to 0 min ([1]; 1000 ng/mL, incubation time 0 min): 100% | Percentage to 0 min ([1]; 1000 ng/mL, incubation time 15 min, rt): 1.90% | Percentage to 0 min ([1]; 1000 ng/mL, incubation time 30 min, rt): 0.16% | compound detected after incubation ([1]; 15 minutes room temperature incubation, at three different concentration levels): About 2% | stability in liver homogenate treated with saline ([1]; conclusion in words): not stable | conversion to pyrimidine product XLVI [2]: converted to XLVI | conversion to pyrimidine product XLVI [3]: oxidized to pyrimidine product XLVI | conversion to pyrimidine product XLVI [4]: oxidized to pyrimidine product XLVI | in vivo efficacy (HBV DNA reduction) (HBV): demonstrated in vivo efficacy with HBV DNA reduction
